# Laboratory results taken from patent US20210277102A1, “COMPOSITIONS AND METHODS FOR TREATING A TUMOR SUPPRESSOR DEFICIENT CANCER” (BETH ISRAEL DEACONESS MEDICAL CENTER, INC., priority 2016, published 2021).
# Entries after “also recorded” stand apart in the source; their conditions may differ.
# Tested on: Pten^pc−/−; Trp53^pc−/− prostate tumors
# Experiment: In vivo drug and antibody treatment of Pten^pc−/−; Trp53^pc−/− mice (MRI, flow cytometry, histology)
# Parameters: species or system mouse
# Protocol: Mice were allocated at random to experimental groups and studies were performed in an unblended manner. For treatment with the CXCR2 antagonist, SB225002 (Cayman Chemical #13336) was dissolved in DMSO (10 mg/ml) and diluted in vehicle (0.9% NaCl, 0.3% Tween 80) for in vivo administration. Mice (4 months of age) were treated daily for 10 days by intraperitoneal injection (5 mg/kg) and prostate tumor tissue (anterior lobes) was subjected to Flow Cytometry and histological analysis. For MRI analysis, mice (4 months of age) were treated daily for 21 days (Pten^pc-/-; Zbtb7a^pc-/-), for 14 days (Pten^pc-/-; Trp53^pc-/-) or for 14 days (Pten^pc-/-; Pml^pc-/-) by intraperitoneal injection (5 mg/kg). For depletion of Gr-1+/CD11b+ cells, Ly6G-depletion antibody (1A8, BioXcell) and control Rat IgG2a antibody (BioXcell) were diluted in phosphate-buffered saline (PBS) for in vivo administration. Mice (4 months of age) were treated every other day for 10 days by intraperitoneal injection (200-300 μg/mouse). InVivoMAb anti-mouse Ly6G/Ly6C (Gr-1) antibody, clone RB6-8C5 (BE0075, BioXcell), and control Rat IgG2b antibody (BE0090, BioXcell) were diluted in PBS and Pten^pc-/-; Trp53^pc-/- mice were treated every other day for 14 days by intraperitoneal injection (200 μg/mouse). For neutralization of CXCL5, anti-Mouse CXCL5 antibody (Leinco Technologies) and control Rat IgG2a antibody (BioXcell) were diluted in PBS and injected every other day for 21 days by intraperitoneal injection (20 μg/mouse). Tumor volume quantification was performed by using VivoQuant and Image J software. All mouse prostate MRI imaging analysis was performed at Small Animal Imaging Core at BIDMC and acquired on an […] Model M2 1T tabletop scanner. For western blotting, cell lysates were prepared by homogenizing tumor tissue with NP40 Buffer (Boston Bioproducts) supplemented with protease (Roche) and HALT phosphatase inhibitor cocktails (Thermo Scientific) and subsequently subjected to SDS-Gel separation (Invitrogen) and western blotting. The following antibodies were used for western blotting: […] (AC-74; Sigma), CXCL5 (R & D Systems #AF433), pIRAK4 (Cell Signaling Technology #11927S), IRAK4 (Cell Signaling Technology #4363P), IκBα (Cell Signaling Technology #4812S), Zbtb7a (hamster anti-Zbtb7a clone 13E9), PTEN (Cell Signaling Technology #9559S), p53 (Cell Signaling Technology #2524S), p21 (Santa Cruz Biotechnology sc-6246) and HSP90 (BD Biosciences BDB610419). Western blots were quantified using Image J software. For immunohistochemistry, tissues and organoids were fixed in 4% paraformaldehyde and embedded in paraffin in accordance with standard procedures. Embedding and hematoxylin and eosin staining of sections were performed by the Histology Core at BIDMC and analyzed by a pathologist. […]
# [1] = Trp53^pc−/− prostate tumors after treatment
compound,measurement,setting,value
O=C(Nc1ccc([N+](=O)[O-])cc1O)Nc1ccccc1Br [SB225002],tumor growth (tumor volume by MRI),"Trp53^pc−/− mice, intraperitoneal injection, vs vehicle or control IgG",significantly suppressed the tumor growth; also recorded: significant inhibition of tumor growth
same,Treg cells (CD4+/FoxP3+) in tumor (flow cytometry),[1],less Foxp3+ cells; also recorded: less Treg cells
same,intra-tumoral Gr-1+/CD11b+ cells (flow cytometry),[1],decrease of Gr-1+/CD11b+ cells
same,tumor burden (histological analysis),"Trp53^pc−/− tumors, anterior prostate lobes",reduced tumor burden; also recorded: significantly diminished tumor involvement
